The source of these data is US6599920B2, “Naphthalene compounds, intermediates, formulations, and methods” (Eli Lilly and Company, priority 1996, dated 2003).

One series relates to ovariectomized rats. The series can be described thus: Ovariectomized rat model of postmenopausal hyperlipidemia (serum cholesterol, uterine weight, uterine eosinophil peroxidase). The format is in vivo. As for the experimental part: Experimental models of postmenopausal hyperlipidemia are known in the art. […] to this invention is the ovariectomized rat model which is detailed in U.S. Pat. No. 5,464,845. Data presented in Table 1 show comparative results among ovariectomized rats, rats treated with 17-α-ethynyl estradiol (EE2), and rats treated with certain compounds of this invention. […] This uterine response to estrogen is well recognized in the art. As expressed in the data below, estrogenicity also was assessed by evaluating the response of eosinophil infiltration into the uterus. […] The data presented in Table 1 reflect the response per treatment group. In accordance with the above procedures, compounds of the present invention and ethynyl estradiol (EE2) in 20% hydroxypropyl β-cyclodextrin are orally administered to test animals.

Series [1] concerns MCF-7 breast adenocarcinoma cells. Briefly: MCF-7 Proliferation Assay. It counts as cell-based. Particulars: Homo sapiens, MCF7; MCF-7 cells, 48 hours with drug; read-out: IC50, inhibition of tumor cell growth (tritiated thymidine uptake). As for the experimental part:
MCF-7 breast adenocarcinoma cells (ATCC HTB 22) were maintained in MEM (minimal essential medium, phenol red-free, Sigma, St. Louis, Mo.) supplimented with 10% fetal bovine serum (FBS) (V/V), L-glutamine (2 mM), sodium pyruvate (1 mM), HEPES {(N-[2-hydroxyethyl]piperazine-N′-[2-ethanesulfonic acid]10 mm}, non-essential amino acids and bovine insulin (1 ug/mL) (maintenance medium). Ten days prior to assay, MCF-7 cells were switched to maintenance medium supplemented with 10% dextran coated charcoal stripped fetal bovine serum (DCC-FBS) assay medium) in place of 10% FBS to deplete internal stores of steroids. MCF-7 cells were removed from maintenance flasks using cell dissociation medium (Ca++/Mg++ free HBSS (phenol red-free) supplemented with 10 mM HEPES and 2 mM EDTA). Cells were washed twice with assay medium and adjusted to 80,000 cells/mL. Approximately […] (8,000 cells) were added to flat-bottom microculture wells (Costar 3596) and incubated at 37° C. in a 5% CO2 humidified incubator for 48 hours to allow for cell adherence and equilibration after transfer. Serial dilutions of drugs or DMSO as a diluent control were prepared in assay medium and […] to triplicate microcultures […]. […] Samples were counted by liquid scintillation using a Wallac BetaPlace β counter. […]

Setting [2] is: 0.1 mg/kg PO, in 20% hydroxypropyl β-cyclodextrin.

Structures are written as SMILES. Marks after values point to notes of the source that are not given here.

As for `C#C[C@]1(O)CC[C@H]2[C@@H]3CCc4cc(O)ccc4[C@H]3CC[C@@]21C` [EE2, 17-α-Ethynyl-estradiol, reference compound], in the series with ovariectomized rats (0.1 mg/kg PO), the “Serum cholesterol (% Dec.), decrease versus ovariectomized controls” value is given as 87.5* % and the “Uterine EPO (Vmax), eosinophil peroxidase” value (from here on “Uterine EPO (Vmax)”) is 133.8*. Also, the “Uterine Wt. (% Inc.), uterine weight % increase versus the ovariectomized controls” value in the series with ovariectomized rats (setting [2]) was 128.0* %. The “Effect on serum cholesterol” value in the series on ovariectomized rats (oral, compared to ovariectomized animals) is on record as “caused a decrease in serum cholesterol”. In addition, the “Effect on uterine weight” value with ovariectomized rats (oral, compared to ovariectomized animals or EE2) is “substantially greater than the uterine weight of the ovariectomized animals”. In the series on ovariectomized rats (oral, stromal layer of uteri), the “Eosinophil infiltration into the uterus” value was “substantial and expected increase in eosinophil infiltration”.
Turning to `COc1cccc(-c2ccc3cc(OC)ccc3c2Cc2ccc(OCCN3CCCCC3)cc2)c1.Cl` [Ex. 1, [2-(3-Methoxyphenyl)-6-methoxynaphthalen-1-yl][4-[2-(1-piperidinyl)ethoxy]phenyl]methane Hydrochloride], the results for the “Serum cholesterol (% Dec.), decrease versus ovariectomized controls” value in the series on ovariectomized rats (0.1 mg/kg PO), in the series with ovariectomized rats (1 mg/kg PO) and in the series on ovariectomized rats (10 mg/kg PO) were 68.4* %, 74.1* % and 65.0* %, respectively. The “Uterine EPO (Vmax)” value with ovariectomized rats (0.1 mg/kg PO) came out at 7.5; with ovariectomized rats (1 mg/kg PO), 5.4; in the series on ovariectomized rats (10 mg/kg PO) it was 6.0. Moreover, the entries for the “Uterine Wt. (% Inc.), uterine weight % increase versus the ovariectomized controls” value with ovariectomized rats (setting [2]), with ovariectomized rats (1 mg/kg PO) and in the series on ovariectomized rats (10 mg/kg PO) were 30.9* %, 31.6* % and 37.2* %, respectively. The 50% inhibitory concentration (IC50) (as a rule, the concentration needed to halve the response being measured) in series [1] turned out to be 0.1 nM.
On to `Cl.Oc1cccc(-c2ccc3cc(O)ccc3c2Cc2ccc(OCCN3CCCCC3)cc2)c1` [Ex. 2, [2-(3-Hydroxyphenyl)-6-hydroxynaphthalen-1-yl][4-[2-(1-piperidinyl)ethoxy]phenyl]methane Hydrochloride], for which the entries for the “Serum cholesterol (% Dec.), decrease versus ovariectomized controls” value in the series with ovariectomized rats (0.1 mg/kg PO), with ovariectomized rats (1 mg/kg PO) and in the series on ovariectomized rats (10 mg/kg PO) were 6.6%, 28.6% and 46.6* %, respectively. The “Uterine EPO (Vmax)” value in the series on ovariectomized rats (0.1 mg/kg PO), in the series with ovariectomized rats (1 mg/kg PO) and with ovariectomized rats (10 mg/kg PO) was 4.8 each time. For the same compound, the entries for the “Uterine Wt. (% Inc.), uterine weight % increase versus the ovariectomized controls” value with ovariectomized rats (setting [2]), with ovariectomized rats (1 mg/kg PO) and in the series with ovariectomized rats (10 mg/kg PO) were 37.6* %, 44.7* % and 28.1* %, respectively.
